Measured values: patent publication US5334757A, “2-(2,3-dicarboxycyclopropyl) glycine and method for producing the same” (Suntory Limited, priority 1991, dated 1994)
“Also recorded” adds a separate entry of the source. Where two headings read alike, the source gives them in different places.

Key:
[1] = test system: newborn rat spinal cord preparation; experiment: Measurement of depolarizing activity, newborn rat spinal cord preparation; format: cell-based; conditions: relative to L-glutamic acid = 1
[2] = test system: monosynaptic reflex in the newborn rat spinal cord preparation; experiment: Determination of monosynaptic reflex inhibition activity in the newborn rat spinal cord preparation; parameters: species or system newborn Wister rat; conditions: for concentration inhibiting (50%) monosynaptic reflex relative to the IC50 of Baclofen: as multiple of IC50 of Baclofen; for monosynaptic reflex inhibition (in words) / IC50: newborn rat spinal cord preparation; for IC50: read-out: IC50 (50% inhibitory concentration), monosynaptic reflex inhibition
Method: The spinal cord of a newborn Wister rat was taken out, as encircled by the spinal column, under etherization.
A single stimulation was applied to a posterior root via a suction electrode and the anterior root reflection potential of the corresponding anterior root was recorded.
DCG-I and DCG-II at various concentration were added to the perfusion solution and the monosynaptic reflexes thus caused were measured.

NMDA receptors = experiment: Depolarization under perfusion with CPP (NMDA receptor agonism); format: cell-based, newborn rat; conditions: for depolarization on adding CPP: 3×10^-5 M CPP perfused; for NMDA type agonistic activity: electrophysiological assay, newborn rat spinal cord preparation
non-NMDA type receptors = conditions: Tetrahedron Letters 31 (28), 4049-4052 (1990); Brain Res. 550, 152-156 (1991); cited from earlier work
NMDA type receptors = conditions: Japanese Patent Laid-Open No. 093563/1991; cited from earlier work
[3] = test system: monosynaptic reflex in the newborn rat spinal cord preparation; conditions: reported value for Baclofen, cited from earlier work

## N[C@@H](CCC(=O)O)C(=O)O [L-glutamic acid, reference compound]
[1]
  Activity ratio: 1

## N[C@H](C(=O)O)C1[C@H](C(=O)O)[C@H]1C(=O)O (stereo partly drawn) [DCG-II, (2S,1'S,2'S,3'S)-2-(2,3-dicarboxycyclopropyl)glycine]
[1]
  Activity ratio: 0.5
[2]
  concentration inhibiting (50%) monosynaptic reflex relative to the IC50 of Baclofen: twice
  monosynaptic reflex inhibition (in words): selectively inhibit monosynaptic reflex even at a low concentration
  IC50: 1000 nM
NMDA receptors
  depolarization on adding CPP: completely inhibited
  NMDA type agonistic activity: agonists for NMDA receptors; also recorded: only a week agonistic activity of the NMDA type

## COC[C@H]1[C@H](C(=O)O)[C@@H]1[C@H](N)C(=O)O [(2S,1'R,2'R,3'R)-2-(2-carboxy-3-methoxymethylcyclopropyl)glycine]
non-NMDA type receptors
  non-NMDA type agonist activity: agonists of the non-NMDA type

## N[C@H](C(=O)O)[C@@H]1C[C@@H]1C(=O)O [(2S,1'R,2'S)-2-(2-carboxycyclopropyl)glycine]
NMDA type receptors
  NMDA type agonist activity: potent agonist of the NMDA type superior to NMDA

## N[C@H](C(=O)O)[C@@H]1[C@@H](COCc2ccccc2)[C@@H]1C(=O)O [(2S,1'R,2'R,3'R)-2-(2-carboxy-3-benzyloxymethylcyclopropyl)glycine]
non-NMDA type receptors
  non-NMDA type agonist activity: agonists of the non-NMDA type

## N[C@H](C(=O)O)C1[C@@H](C(=O)O)[C@@H]1C(=O)O (stereo partly drawn) [DCG-I, (2S,1'R,2'R,3'R)-2-(2,3-dicarboxycyclopropyl)glycine]
[1]
  Activity ratio: 33
[2]
  concentration inhibiting (50%) monosynaptic reflex relative to the IC50 of Baclofen: about 1/20
  monosynaptic reflex inhibition (in words): selectively inhibit monosynaptic reflex even at a low concentration
  IC50: 60 nM
NMDA receptors
  depolarization on adding CPP: completely inhibited
  NMDA type agonistic activity: agonists for NMDA receptors; also recorded: agonist of the NMDA type

## NCC(CC(=O)O)c1ccc(Cl)cc1 (stereo not drawn) [Baclofen]
[3]; in nM
  IC50: ~500 nM
[3]
  IC50: ~500 nM
